Consider one compound from patent publication US11059845B2, “Immune stimulating macrolides” (ISR IMMUNE SYSTEM REGULATION HOLDING AB (PUBL), priority 2017, dated 2021).

Bounds are passed on as bounds.

In test [1] the test system is PBMCs. In words: Supernatant IL-10 sandwich ELISA. Format: cell-based, human. As to conditions: 100 U/mL IL-2, 48 h and 7 days. The procedure: Supernatant IL-10 was measured with a standard sandwich ELISA (all antibodies from BD Biosciences) after 48 hours and 7 days incubation with 2.5 μM of compound 1 and 100 U/mL IL-2 (Miltenyi Biotechnologies) in complete RPMI media, 37° C., 5% CO2
Supernatant IL-10 was measured with a standard sandwich ELISA (all antibodies from BD Biosciences) after 48 hours and 7 days incubation with 2.5 uM of compound 1 and 100 U/mL IL-2 (Miltenyi Biotechnologies) in complete RPMI media, 37° C., 5% CO2.
A general note: In an ELISA, binding on a coated surface is turned into a signal by an enzyme label.

In test [2] the test system is C57bl/6 mice. Put plainly: CD25 expression in blood of mice after i.v. injection. The conditions noted are these: highest dose of 5 mg/kg, 24 h. Format: in vivo, mouse. The procedure: FIG. 14: % CD25 high cells in blood of C57bl/6 mice injected 24 h previously with indicated dose of compound 1. CD25 expression was measured by flow cytometry.
Study 13: Compound 1 was administered i.v. to C57bl/6 mice at 0.165 mg/kg to 5 mg/kg. CD25+ cell abundance was increased in animals receiving the highest dose of 5 mg/kg (FIG. 14), as was body weight in the same group (not shown).

Test [3] deals with CD4+ T cells. In words: IL-1beta secretion from CD4+ T cells (cytometric bead assay). Format: cell-based, human. As to conditions: 2 days. The procedure: (§1) FIG. 13: IL1b secretion (as measured by cytometric bead assay) from PBMC, macrophages or CD4 T cells stimulated with indicated compound for 48 h.
(§2) Study 12: PBMCs, macrophages and CD4+ T cells where exposed to compounds 1 and 2 for 2 days.

For test [4], the target named is T1, human TLR2 (Homo sapiens, UniProt O60603).
T1 construct: host or cells: recombinant HEK-293-TLR cell lines (hTLR2, NFkB-SEAP reporter)
T1 sequence (O60603 21-784): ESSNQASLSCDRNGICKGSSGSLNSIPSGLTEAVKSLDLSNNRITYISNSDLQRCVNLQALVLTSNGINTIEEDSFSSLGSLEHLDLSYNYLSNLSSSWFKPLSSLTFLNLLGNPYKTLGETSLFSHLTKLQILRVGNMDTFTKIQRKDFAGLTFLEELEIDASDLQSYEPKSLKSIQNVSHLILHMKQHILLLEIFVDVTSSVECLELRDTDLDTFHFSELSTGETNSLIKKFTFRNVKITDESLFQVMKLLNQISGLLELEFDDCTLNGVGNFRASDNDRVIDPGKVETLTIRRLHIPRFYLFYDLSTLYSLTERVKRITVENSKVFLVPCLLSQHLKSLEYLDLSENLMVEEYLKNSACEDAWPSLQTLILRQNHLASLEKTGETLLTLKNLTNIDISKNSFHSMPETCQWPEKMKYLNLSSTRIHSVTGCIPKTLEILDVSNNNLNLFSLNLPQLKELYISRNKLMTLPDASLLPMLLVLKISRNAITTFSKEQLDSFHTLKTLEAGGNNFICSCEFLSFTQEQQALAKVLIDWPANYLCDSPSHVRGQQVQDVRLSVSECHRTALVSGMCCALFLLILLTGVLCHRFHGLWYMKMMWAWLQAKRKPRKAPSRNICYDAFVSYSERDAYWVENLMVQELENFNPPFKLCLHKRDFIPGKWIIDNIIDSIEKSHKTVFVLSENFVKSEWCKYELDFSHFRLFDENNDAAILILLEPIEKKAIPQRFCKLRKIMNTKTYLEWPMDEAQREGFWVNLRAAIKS
In words: TLR2 reporter assay (HEK-293-TLR, SEAP). Format: cell-based. On the procedure:
Samples and controls were tested in duplicate on recombinant HEK-293-TLR cell lines using a cell reporter assay at Invivogen using their standard assay conditions. These cell lines functionally over-express human TLR2 protein as well as a reporter gene which is a secreted alkaline phosphatase (SEAP). The production of this reporter gene is driven by an NFkB inducible promoter. The TLR reporter cell lines activation results are given as optical density values (OD). 20 μl of each test article were used to stimulate the hTLR2 reporter cell lines in a 200 μl of final reaction volume. Samples were tested in duplicate, with at least two concentrations tested—20 uM and 10 uM.
Compounds were tested using a TLR2 reporter assay (see general methods) that measured for stimulation of the TLR2 receptor. Stimulatory effect was measured as an increase in optical density (OD) due to release of secreted alkaline phosphatase (SEAP) and is shown in table 4: […]
A general note: In a reporter assay the amount or activity of a reporter protein is the signal.

The subject of test [5] is PBMCs. Put plainly: Cytokine/chemokine secretion from PBMCs (cytometric bead assay). Format: cell-based, human. The conditions noted are these: 2 days. The procedure: (§3) FIG. 11: Chemokine RANTES secretion (as measured by cytometric bead assay) from PBMC or macrophages stimulated with indicated compound for 48 h.
(§4) FIG. 12: IL12p70 secretion (as measured by cytometric bead assay) from PBMC or macrophages stimulated with indicated compound for 48 h.
as §1
(§5) Study 10: PBMCs and macrophages where exposed to compounds 1 or 2 for 2 days (FIG. 11).
(§6) Study 11: PBMCs and macrophages where exposed to compounds 1 and 2 for 2 days.
as §2

The subject of test [6] is C57bl/6 mice. Put plainly: MHC class I expression on CD11b+ splenocytes of mice after i.v. injection. Format: in vivo, mouse. As to conditions: spleen 24 h later. The procedure:
FIG. 15: % MHC class I high CD11b+ cells in spleen of 3 individual C57bl/6 mice injected 24 h previously with indicated compound. MHC class I and CD11 b expression was measured by flow cytometry.
Study 14: Compound 1 or A was administered i.v. to C57bl/6 mice.

Test [7] relates to peripheral blood mononuclear cells (PBMC). In words: Marker expression on PBMC by flow cytometry. The conditions noted are these: 24 h. Format: cell-based, human. On the procedure:
Human peripheral blood mononuclear cells (PBMCs) were purified from healthy donors with Ficoll-Paque density centrifugation. Cells were cultured in complete RPMI-1640 media (Invitrogen) supplemented with 25 mM HEPES, L-glutamine, Sodium pyruvate (Sigma), 10% fetal bovine serum, 100 μg/mL penicillin and 100 μg/mL streptomycin (Hyclone) for 24-72 hours in 37° C., 5% CO2 and stimulated with and increasing concentrations of compound 1 and 2. Cells were then washed in PBS and stained with monoclonal antibodies specific for cell surface markers (BD Pharmingen) and analysed with flow cytomtetry using a BD FACS Canto II flow cytometer. All samples were tested in duplicates.
(§7) Human peripheral blood mononuclear cells (PBMCs) were purified from healthy donors with Ficoll-Paque density centrifugation. Cells were cultured in complete RPMI-1640 medium (Invitrogen) supplemented with 25 mM HEPES, L-glutamine, Sodium pyruvate (Sigma), 10% fetal bovine serum, 100 μg/mL penicillin and 100 μg/mL streptomycin (Hyclone). Cells were stimulated for 24 h (study 1-4) or 48 h to 1 week (study 5) in 37° C., 5% CO2 with increasing concentrations of compound 1 and 2 in tissue culture plates. The cells were removed from the plate, washed in PBS and analysed for expression of cell specific surface markers and MHC class I with flow cytometry using monoclonal antibodies from BD Pharmingen and a FACS Canto II flow cytometer.
(In general: A flow cytometer gives signals particle by particle.)

Test [8] relates to Macrophages from healthy donors. In words: Cytokine/chemokine secretion from macrophages (cytometric bead assay). Format: cell-based, human. The procedure: FIG. 10: Interferon-gamma secretion (as measured by cytometric bead assay) from macrophages stimulated with indicated compound for 48 h.
as §3, §4, §1
Study 9: Macrophages from healthy donors where exposed to compounds 1 or 2 for 48 hours. […] Compound 1 is therefore able to induce IFN-gamma secretion in macrophages from healthy donors.
as §5, §6, §2

The subject of test [9] is Monocytes differentiated into macrophages. In words: CD80 expression on monocytes differentiated into macrophages. As to conditions: 24 h. Format: cell-based, human. The procedure: as §7
Test [10] has as its system T cells in PBMC. In words: T cell proliferation with IL-2, Cell Trace Violet, flow cytometry. Format: cell-based, human. The conditions noted are these: 6 days, in the presence of IL-2. On the procedure: FIG. 7. CD4 T cell proliferation after 6 days stimulation with compound 1, measured with proliferation dye Celltrace violet (Invitrogen) and flow cytometry. Untreated cells (UNT) or compound A were used as controls.
Study 6: PBMC were stimulated with compound 1 and cultured in RPMI media for 6 days in the presence of IL-2 (Miltenyi Biotechnologies) and Cell Trace Violet Dye (Invitrogen). Proliferation was measured with flow cytometry.

Consider `CC[C@H]1OC(=O)[C@H](C)[C@@H](O[C@H]2C[C@@H](N(C)C)[C@H](O)[C@@H](C)O2)[C@H](C)[C@@H](O)[C@](C)(O)C[C@@H](C)CN(C)[C@H](C)[C@@H](O)[C@]1(C)O` [Compound 1], for which the “production of IL-10” value in test [1] is “increased production”. In addition, the “CD25+ cell abundance” value in [2] was “increased”. In addition, the “IL-1beta secretion, CD4+ T cells” value in test [3] is recorded as “no IL-1beta was induced”. For the same compound, the “OD after addition of 5 μM test article” value in test [4] (5 μM, SEAP reporter optical density) was determined as 0.111. Further, in [4] (10 μM, SEAP reporter optical density), the “OD after addition of 10 μM test article” value is 0.202. Also, in test [4] (20 μM, SEAP reporter optical density), the “OD after addition of 20 μM test article” value was 0.458. Besides, the “concentrations at which TLR2 was stimulated (down to)” value in test [4] (lowest stimulating concentration tested) was ≥ 5 µM. Further, in [5], the “IL-1beta secretion, PBMCs” value is given as “slightly”; the “IL-12p70 secretion, PBMCs” value is listed as “secreted IL-12p70”; the “expression of RANTES in PBMCs” value is “twofold upregulation”. Moreover, in [6], the “splenocyte cells (CD11b+) with high MHC I expression” value is on record as “induced an increase”. Besides, in test [7] (1 μM), the “activation marker CD69 on B cells” value was “upregulated” and the “activation marker CD69 on CD4+ T cells” value is listed as “upregulated”. Besides, in test [7], the “MHC class I (HLA-ABC) on B-cells” value is reported as “upregulation”, the “MHC class I (HLA-ABC) on T-cells” value is listed as “upregulation”, the “MHC class II (HLA-DR) on monocytes” value is listed as “upregulation” and the “co-stimulatory molecule CD80 on monocytes” value was “upregulation”. In addition, in test [8] (2 days), the “IL-1beta secretion, macrophages” value is reported as “increased”; the “IL-12p70 secretion, macrophages” value was “secreted IL-12p70”; the “expression of RANTES in macrophages” value is “induced a high expression”. The “IFN-gamma secretion, macrophages” value in test [8] (48 hours) is given as “secreted IFN-gamma”. In addition, the CD80 on macrophages result in test [9] is “upregulated”. In addition, the “cytokine driven proliferation profile of T cells” value in test [10] was “altered cytokine driven proliferation profile”.
